According to PMC6684055 (Toxicology letters, 2019):
Several values for one entry are separate records, joined by “and”; a condition that tells them apart may be missing. Identical values can stand only once. Entries after “also recorded” stand apart in the source; their conditions may differ.

Experiments:
[1] = tested on: CYP1A1 and CYP1A2; test: Expression of CYP1A1 and CYP1A2 mRNAs; format: cell-based, human; details: three donors, 24 h, MMI 200 μM, TCDD 5 nM
[2] = Residual MMI in culture media after incubation with primary human hepatocytes; format: in vitro ADME; details: 24 h incubation with human hepatocytes, initial 200 μM
[3] = tested on: CYP1A genes; test: Induction of CYP1A genes; details: 5 F-HepaRG cells, 24 h, MMI 200 μM; for efficacy of CYP1A genes induction relative to TCDD (100%): TCDD 5 nM
[4] = tested on: CYP1A1; test: Induction of CYP1A1 catalytic activity in primary human hepatocytes; format: cell-based; details: 24 h; for induction of CYP1A1 activity, concentration-response profile (in words): then luciferin-CEE 3 h
[5] = tested on: CYP1A1; test: Induction of CYP1A1 catalytic activity in LS180 cells; format: cell-based, human; details: 24 h, inverse U-shape profile
[6] = tested on: human AhR; details: cited from earlier work
[7] = tested on: CYP1A1; test: Single concentration inactivation assay; format: biochemical; details: human, human liver microsomes, probe Luciferin-CEE
[8] = biological target: T1, AhR (Homo sapiens, UniProt P35869); format: cell-based; details: AZ-AHR cells, without incubation with hepatocytes
T1 sequence (P35869 11-848): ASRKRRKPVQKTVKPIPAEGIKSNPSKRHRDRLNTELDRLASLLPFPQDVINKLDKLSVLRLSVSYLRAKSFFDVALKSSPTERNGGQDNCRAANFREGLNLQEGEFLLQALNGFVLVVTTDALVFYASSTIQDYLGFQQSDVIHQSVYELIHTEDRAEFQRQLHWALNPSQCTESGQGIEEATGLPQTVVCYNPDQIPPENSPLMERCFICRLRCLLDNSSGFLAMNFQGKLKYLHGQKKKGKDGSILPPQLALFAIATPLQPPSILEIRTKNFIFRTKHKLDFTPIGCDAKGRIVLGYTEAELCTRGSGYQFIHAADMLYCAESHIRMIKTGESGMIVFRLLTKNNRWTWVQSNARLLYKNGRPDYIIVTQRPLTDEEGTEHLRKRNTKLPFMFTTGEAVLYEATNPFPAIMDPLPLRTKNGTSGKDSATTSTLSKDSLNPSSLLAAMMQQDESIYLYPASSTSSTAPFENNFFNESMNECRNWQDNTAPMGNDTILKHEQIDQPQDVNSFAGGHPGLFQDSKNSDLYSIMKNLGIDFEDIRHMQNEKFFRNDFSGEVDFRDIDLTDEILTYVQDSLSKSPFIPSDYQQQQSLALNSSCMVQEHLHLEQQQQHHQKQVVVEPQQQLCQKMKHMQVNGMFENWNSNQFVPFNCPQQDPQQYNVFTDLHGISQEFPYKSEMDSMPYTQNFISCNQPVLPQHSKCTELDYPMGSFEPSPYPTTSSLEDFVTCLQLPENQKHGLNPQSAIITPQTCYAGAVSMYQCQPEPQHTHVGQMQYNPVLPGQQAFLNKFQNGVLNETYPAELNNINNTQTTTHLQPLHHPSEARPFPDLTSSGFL

[9] = tested on: CYP1A1; details: ref Stepankova et al., 2018; cited from earlier work
[10] = tested on: CYP1A2 mRNA; test: CYP1A2 mRNA expression; format: cell-based, human; details: 5 F-HepaRG cells, 24 h, TCDD 5 nM, two consecutive passages
[11] = human hepatocytes, MMI 0.1-200 μM

induction of CYP1A1 and CYP1A2 mRNAs and proteins in primary human hepatocytes (in words) [1]	efficacy of CYP1A genes induction relative to TCDD (100%) [3]	induction of CYP1A1 activity, concentration-response profile (in words) [4, 11]	concentration at peak of CYP1A1 induction [5]	SMILES	other results
Modest induction	15%	–	–	Cn1ccc2ccccc21 [1-methylindole]	residual MMI in culture media (in words) [2]: no residual MMI was detected
no effect	–	No induction	25 µM	Cc1cc2ccccc2[nH]1 [2-methylindole]	activity at AhR (in words) ([6]; ref Stepankova et al., 2018): nearly inactive; CYP1A induction in HepaRG cells (in words) [3]: nearly inactive
Modest induction	–	No induction	–	Cc1c[nH]c2ccccc12 [3-methylindole]	activity at human AhR (in words) ([6]; ref Rasmussen et al., 2016): partial agonist
–	~100%	Inverse U-shaped	25 µM	Cc1cccc2[nH]ccc12 [4-methylindole]	inhibition at 30 min, 200 μM [7]: 10%; efficacy as AhR agonist compared to 3-methylindole (skatole) ([6]; ref Stepankova et al., 2018): approx. 25 times
–	~ 20%	Inverse U-shaped	–	Cc1ccc2[nH]ccc2c1 [5-methylindole]	inhibition at 30 min, 200 μM [7]: 47%
–	–	Inverse U-shaped	25 µM	Cc1ccc2cc[nH]c2c1 [6-methylindole]	efficacy as AhR agonist compared to 3-methylindole (skatole) ([6]; ref Stepankova et al., 2018): approx. 25 times

SMILES	induction of CYP1A1 and CYP1A2 mRNAs and proteins in primary human hepatocytes (in words) [1]	efficacy of CYP1A genes induction relative to TCDD (100%) [3]	induction of CYP1A1 activity, concentration-response profile (in words) [4, 11]	concentration at peak of CYP1A1 induction [5]	other results
Cc1cccc2cc[nH]c12 [7-methylindole]	strong inducer; also recorded: very strong inducer	~ 20%	Concentration-dependent induction	–	relative efficacy of CYP1A1 activity induction as compared to TCDD [4, 11]: ~ 2%; AhR agonist activity of parental compound (in words) [8]: weak agonist of AhR; CYP1A induction in LS180 intestinal cells (in words) [9]: modest CYP1A inducer; also recorded: weak inducer; CYP1A induction in HepaRG cells (in words) [3]: modest CYP1A inducer
Clc1cc2c(cc1Cl)Oc1cc(Cl)c(Cl)cc1O2 [TCDD, 2,3,7,8-tetrachlorodibenzo-p-dioxin, reference compound]	strongly induced	–	–	–	induction of CYP1A2 mRNA [10]: 34 fold and 50 fold; induction of CYP1A1 enzyme activity ([4]; human hepatocytes culture Hep200571, TCDD 5 nM): 11 fold; induction of CYP1A1 enzyme activity ([4]; human hepatocytes culture Hep220993, TCDD 5 nM): 153 fold
